Patent US20090149531A1, “CHEMICAL COMPOSITION DERIVED FROM P-HYDROXYPHENYL PROPIONIC ACID FOR THE TREATMENT OF PSORIASIS” (APOTEKNOS PARA LA PIEL, S.L., priority 2007, published 2009)

Experiments:
[1] = Assessment of erythema in the hairless rat study; format: in vivo, hairless rats; settings: Calcitriol 0.01% topical once a day, 0=absence, 1=low grade, 3=high grade
Protocol: (§1) To do this Calcitriol was used as the reference product at 0.01% and compound A was used as the test product at 1% and 0.1% (100 μg/cm^2 and 10 μg/cm^2, respectively). A Control Group was included, administered only with the vehicle (absolute ethanol).
(§2) The treatments were administered topically, once a day for 10 days (100 μg/side/animal). The animals were weighed on a daily basis throughout the study and the grade of erythema was evaluated (0=Absence of erythema, 1=Low grade erythema, 3=High grade erythema). On the last day of the study, day 11, the amount of corneous material extracted from the epidermis of the animals was evaluated.

[2] = tested on: cell hyperproliferation in hairless rats; assay: Model of desquamation in hairless rats: corneous material extracted; format: in vivo
Protocol: The activity of compound A on cell hyperproliferation in hairless rats was evaluated using the model of desquamation in hairless rats described in the publication: Bräutigam, M., Hübner, H., Rach, P., Thieroff-Ekerdi, R. “Effects of Calcipotriol (MC 903) and Calcitriol after Topical Application on the Skin of Hairless Rats”, Skin Pharmacol 1992; 5:87-92.
as §1
The animals were randomly distributed into the following experimental groups:
as §2

[3] = Body weight in the hairless rat study; format: in vivo, hairless rats; settings: Calcitriol 0.01% topical once a day
Protocol: as §1, §2

[4] = Signs of toxicity and deaths in the hairless rat study; format: in vivo
Protocol: A Control Group was included, administered only with the vehicle (absolute ethanol).
as §2

[5] = Calcitriol 0.01% (1 μg/cm^2) topical once a day for 10 days, day 11

Q: Which “Assessment of erythema (mean grade)” value ([1]; Baseline) does the source give for C=C1/C(=C\C=C2/CCC[C@]3(C)[C@@H]([C@H](C)CCCC(C)(C)O)CC[C@@H]23)C[C@@H](O)C[C@@H]1O [Calcitriol, 1-alpha,25-dihydroxycholecalciferol, reference compound] here?
A: 0.0 ± 0.00

Q: And the “Assessment of erythema (mean grade)” value ([1]; Day 2)?
A: 0.0 ± 0.00

Q: And the “Assessment of erythema (mean grade)” value ([1]; Day 3)?
A: 0.0 ± 0.00

Q: And the “Assessment of erythema (mean grade)” value ([1]; Day 4)?
A: 0.0 ± 0.00

Q: And the “Assessment of erythema (mean grade)” value ([1]; Day 5)?
A: 0.0 ± 0.00

Q: What about the “Assessment of erythema (mean grade)” value ([1]; Day 6) of the same compound?
A: 0.0 ± 0.00

Q: And the “Assessment of erythema (mean grade)” value ([1]; Day 7)?
A: 0.0 ± 0.00

Q: And the “Assessment of erythema (mean grade)” value ([1]; Day 8)?
A: 1.0 ± 0.00

Q: And the “Assessment of erythema (mean grade)” value ([1]; Day 9)?
A: 1.5 ± 0.22

Q: What about the “Assessment of erythema (mean grade)” value ([1]; Day 10) of the same compound?
A: 2.0 ± 0.20

Q: What about the “Assessment of erythema (mean grade)” value ([1]; Day 11) of the same compound?
A: 2.0 ± 0.00

Q: And the “amount of corneous material extracted, total sum of the right and left flanks, Portal No, 1” value [2, 5]?
A: 13.5 ± 4.89 mg

Q: And the “amount of corneous material extracted, total sum of the right and left flanks, Portal No, 2” value [2, 5]?
A: 7.7 ± 1.43 mg

Q: And the “amount of corneous material extracted, total sum of the right and left flanks, Portal No, 3” value [2, 5]?
A: 5.9 ± 0.94 mg

Q: What about the “amount of corneous material extracted, total sum of the right and left flanks, Portal No, 4” value [2, 5] of the same compound?
A: 4.5 ± 0.60 mg

Q: What about the “amount of corneous material extracted, total sum of the right and left flanks, Portal No, 5” value [2, 5] of the same compound?
A: 3.7 ± 0.35 mg

Q: And the “amount of corneous material extracted, total sum of the right and left flanks, Portal No, 6” value [2, 5]?
A: 21.7 ± 2.07 mg

Q: What about the “amount of corneous material extracted compared with the other experimental groups” value ([2]; Calcitriol 0.01%, topical 0.2 ml/animal) of the same compound?
A: clearly greater than that extracted in the other experimental groups

Q: And the Body weight ([3]; Baseline)?
A: 0.0 ± 0.00 g

Q: And the Body weight ([3]; Day 2)?
A: 0.0 ± 0.00 g

Q: What about the Body weight ([3]; Day 3) of the same compound?
A: 0.0 ± 0.00 g

Q: And the Body weight ([3]; Day 4)?
A: 0.0 ± 0.00 g

Q: And the Body weight ([3]; Day 5)?
A: 0.0 ± 0.00 g

Q: And the Body weight ([3]; Day 6)?
A: 0.0 ± 0.00 g

Q: And the Body weight ([3]; Day 7)?
A: 0.0 ± 0.00 g

Q: What about the Body weight ([3]; Day 8) of the same compound?
A: 1.0 ± 0.00 g

Q: And the Body weight ([3]; Day 9)?
A: 1.5 ± 0.22 g

Q: And the Body weight ([3]; Day 10)?
A: 2.0 ± 0.20 g

Q: And the Body weight ([3]; Day 11)?
A: 2.0 ± 0.00 g

Q: And the “animals that died before the end of the study” value ([4]; Calcitriol 0.01% group (n 6), repeated administration)?
A: Three

Q: What about the signs of toxicity ([4]; rat, in vivo) of the same compound?
A: clear signs of toxicity were detected
